Assay results published in publication PMC10218449, “Evidence for Angiotensin II as a Naturally Existing Suppressor for the Guanylyl Cyclase A Receptor and Cyclic GMP Generation” (International Journal of Molecular Sciences, 2023).

What was measured:
[1] = Circulating ANP levels in normal rats after infusion; type: in vivo, rat (Sprague-Dawley, male)
Description: (F) Urine output represented by urine volume collected at every 30 min interval during continuous infusion. (G) Urinary sodium excretion during the entire 90 min continuous infusion.
Protocols in this study have been approved by the Mayo Clinic Institutional Animal Care and Use Committee (IACUC). Rats (Sprague-Dawley, male, 10–11 weeks old) were anesthetized and maintained with 2% isoflurane. Rats were kept on heating pad at 37 °C for the entire experiment to maintain their body temperature. Polyethylene tubes (PE-50) were placed into a jugular vein for saline and peptides infusion and into a carotid artery for BP monitoring and blood sampling. The bladder was cannulated with a PE-90 tube for passive urine collection. […] After the 45 min equilibrium, BP was recorded, and blood was sampled as baseline reference value. […] Urine samples were collected every 30 min period and BP was measured every 15 min using CardioSOFT Pro software (Sonometrics Corporation). […] The volume of urine was measured, and the sodium concentrations were measured with an electrocyte analyzer (Diamond Diagnostics Inc., Holliston, MA, USA). Both plasma and urine samples were then stored at −80 °C until assayed. cGMP was measured in rat plasma and urine samples by a cGMP ELISA (Enzo Life Sciences, Farmingdale, NY, USA) as previously reported.

[2] = system: HEK293/GC-A^+/AT1^+ cells (human GC-A and AT1); experiment: Intracellular cGMP generation in HEK293/GC-A+/AT1+ cells; type: cell-based; conditions: valsartan 1 µM or Go6983 5 µM; ANP 10^−8 M, ANGII 10^−8 M; one-way ANOVA with Dunnett, p < 0.05
Source text: We leveraged HEK293 cells as a cellular tool for mechanistic exploration in the current study. HEK293 cells (passage 4–6) were maintained in Dulbecco’s modified Eagle’s medium (DMEM) supplemented with 10% fetal bovine serum, 100 U/mL penicillin, 100 U/mL streptomycin, and designated antibiotics. HEK293/GC-A^+ and HEK293/GC-B^+ cell lines were generated from HEK293 parental cell transfected with plasmids (OriGene, Rockville, MD, USA) containing either human GC-A or GC-B cDNA sequences. Both GC-A and GC-B plasmid carried sequences for a green florescence protein (GFP) tag and resistance to Neomycin (G418). HEK293/GC-A^+/AT1^+ and HEK293/GC-A^+/AT2^+ cell lines were generated from HEK293/GC-A^+ transfected with lentiviral particle with clones of either human AT1 or AT2 receptor (OriGene, Rockville, MD, USA) using a polybrene transfection agent. Initial transfection was completed with multiplicity of infection (MOI) at 20, 10, and 1. The lentiviral vector carried sequence for resistance to puromycin. Positive HEK293/GC-A^+ and HEK293/GC-B^+ cells were cultured in a regular medium with 250 μg/mL G418; Likewise, positive HEK293/GC-A^+/AT1^+ or HEK293/GC-A^+/AT2^+ cells were cultured in a regular medium with 250 μg/mL G418 (to select for GC-A^+ cells) and 1 μg/mL puromycin (to select for AT1^+ or AT2^+ cells). […]

p38 MAPK = experiment: MAPK phosphorylation (p38 MAPK, western blot); type: cell-based, human; conditions: Go6983 at 5 µM, HEK293/GC-A^+/AT1^+ cells
Source text: (§1) Figure 5 Involvement of PKC Signaling in the Crosstalk between ANGII and GC-A. (A) Protein expression of different human PKC isoforms in the membrane and cytosol fractions of different HEK293 cell lines (with or without treatment of ANGII). GC-A and NaK-ATPase serve as quality control for the separation of membrane and cytosol fractions. GAPDH serves as an additional control as it is primarily expressed in the cytosol fraction compared to membrane fraction. (B) Protein expression of phosphorylated PKC substrates, phosphorylated p38 MAPK, and p38 MAPK in HEK293/GC-A^+/AT1^+ cells treated with different PKC modulators. GAPDH serves as a loading control and 50 µg of total protein (determined using BCA method) was loaded in each lane. PMA, phorbol 12-myristate 13-acetate. […] (D) Hypothetical mechanism underlying the crosstalk between ANGII and GC-A derived from our in vitro studies: (1) ANGII naturally suppresses GC-A mediated cGMP production via AT1 receptor, but not the AT2 receptor nor direct effect on GC-A; (2) PKC is a critical downstream target of AT1 mediating this RAAS/NPS interaction.
(§2) HEK293 parental cells, HEK293/GC-A^+, HEK293/GC-B^+, HEK293/GC-A^+/AT1^+, and HEK293/GC-A^+/AT2^+ cells were cultured in 60 mm dish to reach 90–100% confluency before being harvested in RIPA buffer (Thermo Fisher Scientific, Waltham, MA, USA) with protease inhibitors. […]

PKC = PKC activity (phosphorylated pan-PKC substrates, western blot); type: cell-based, human; conditions: Go6983 at 5 µM, HEK293/GC-A^+/AT1^+ cells
Source text: as §1, §2

Molecule: CC[C@H](C)[C@H](NC(=O)[C@H](Cc1ccc(O)cc1)NC(=O)[C@@H](NC(=O)[C@H](CCCNC(=N)N)NC(=O)[C@@H](N)CC(=O)O)C(C)C)C(=O)N[C@@H](Cc1cnc[nH]1)C(=O)N1CCC[C@H]1C(=O)N[C@@H](Cc1ccccc1)C(=O)O [ANGII, angiotensin II]
- circulating ANP levels, effect of ANGII co-infusion (in words) ([1]; ANGII 50 pmol/kg/min with ANP 300 pmol/kg/min vs ANP alone, 90 min, N = 4 per group): no influence on circulating ANP levels

Molecule: CC[C@H](C)[C@@H]1NC(=O)[C@H](CCCNC(=N)N)NC(=O)[C@H](CC(=O)O)NC(=O)[C@H](CCSC)NC(=O)[C@H](CCCNC(=N)N)NC(=O)CNC(=O)CNC(=O)[C@H](Cc2ccccc2)NC(=O)[C@@H](NC(=O)[C@H](CO)NC(=O)[C@H](CO)NC(=O)[C@H](CCCNC(=N)N)NC(=O)[C@H](CCCNC(=N)N)NC(=O)[C@H](CC(C)C)NC(=O)[C@@H](N)CO)CSSC[C@@H](C(=O)N[C@@H](CC(N)=O)C(=O)N[C@@H](CO)C(=O)N[C@@H](Cc2ccccc2)C(=O)N[C@@H](CCCNC(=N)N)C(=O)N[C@@H](Cc2ccc(O)cc2)C(=O)O)NC(=O)CNC(=O)[C@H](CC(C)C)NC(=O)CNC(=O)[C@H](CO)NC(=O)[C@H](CCC(N)=O)NC(=O)[C@H](C)NC(=O)CNC1=O [ANP, atrial natriuretic peptide]
- circulating ANP level ([1]; ANP alone, 300 pmol/kg/min continuous i.v. infusion, plasma at 90 min, mean ± SEM, N = 4, endogenous level 15.3 ± 1.4 pg/mL): 18125.1 ± 1729.3 pg/mL

Molecule: CCCCC(=O)N(Cc1ccc(-c2ccccc2-c2nnn[nH]2)cc1)[C@H](C(=O)O)C(C)C [valsartan]
- rescue of ANGII suppression of ANP-induced cGMP (in words) [2]: significantly rescued the suppression effect of ANGII on ANP-induced cGMP

Molecule: Go6983
- MAPK dependence of PKC inhibition (in words) (p38 MAPK): mitogen-activated protein kinase (MAPK) independent manner
- rescue of ANGII suppression of ANP-induced cGMP (in words) [2]: significantly rescued the suppression effect of ANGII on ANP-induced cGMP
- PKC activity inhibition (in words) (PKC): effectively inhibited PKC activity
